Test results published in publication PMC4736845, “Structural comparison between the open and closed forms of citrate synthase from Thermus thermophilus HB8” (Biophysics and Physicobiology, 2015).

Target: T1, TtCS (citrate synthase from Thermus thermophilus HB8) (Thermus thermophilus, UniProt Q5SIM6)
T1 construct: gene TTHA1343; recombinant, E. coli BL21(DE3) pET-3a; no tag stated; 377 residues, Mr 42,304 per subunit; homodimer
T1 sequence (Q5SIM6 1-377): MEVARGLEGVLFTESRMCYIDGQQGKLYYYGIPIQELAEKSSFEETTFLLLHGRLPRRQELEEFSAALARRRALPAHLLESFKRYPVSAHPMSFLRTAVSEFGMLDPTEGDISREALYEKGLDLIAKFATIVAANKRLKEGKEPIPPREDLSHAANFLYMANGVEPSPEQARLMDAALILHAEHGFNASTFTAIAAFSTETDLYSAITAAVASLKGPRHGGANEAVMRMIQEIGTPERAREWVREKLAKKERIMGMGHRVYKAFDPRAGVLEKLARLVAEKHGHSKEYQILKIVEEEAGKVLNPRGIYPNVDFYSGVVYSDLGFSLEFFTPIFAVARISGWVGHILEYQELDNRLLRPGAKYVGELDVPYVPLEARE
Assay: X-ray crystal structure, […] Å, co-crystallised
Format: binding
Details: closed forms (fully and partially closed)

SMILES	X-ray crystal structure, 2.3 Å, co-crystallised (ternary complex with citrate, same crystallisation, active site just above citrate)	X-ray crystal structure, 2.3 Å, co-crystallised (ternary complex with CoA, 10 mM Na-citrate, 10 mM CoA, 100 mM KCl, then 1.5 M lithium sulfate, 100 mM Na-citrate pH 5.8, 20°C, active site)
CC(C)(COP(=O)(O)OP(=O)(O)OC[C@H]1O[C@@H](n2cnc3c(N)ncnc32)[C@H](O)[C@@H]1OP(=O)(O)O)[C@@H](O)C(=O)NCCC(=O)NCCS [CoA]	CoA is bound at the upper part of the active site just above the citrate-binding site	
O=C(O)CC(O)(CC(=O)O)C(=O)O [citrate]		Citrate is bound deep in the cleft of the active site by hydrogen bonds
